Data taken from US20150342985A1, “COMPOSITIONS COMPRISING LITHIUM” (priority 2012, published 2015).

Assay: Lithium isotope levels in post-mortem neocortex (BA7), quadrupole inductively coupled plasma mass spectroscopy
From the text: Lithium (Li) isotope levels have been measured in post-mortem neocortex (BA7) of human subjects having bipolar disorder, without having bipolar disorder receiving lithium treatment at time of death. Neurologically intact individuals and subjects with schizophrenia were included as controls.
Bipolar brains show a 4% shift away from 7-Li within the total lithium content. Similar fractionation is not seen in schizophrenia or neurologically intact controls.

| SMILES | brain penetration (relative to Li-7, stated as applicants' discovery) | shift away from 7-Li within the total lithium content (bipolar brains, FIG. 2, deviation from environmental distribution) [%] | fractionation (shift away from 7-Li) in brain (schizophrenia or neurologically intact controls) |
| --- | --- | --- | --- |
| [6Li] [Li-6] | better able to penetrate the brain | – | – |
| [7Li] [7-Li] | – | 4 | not seen |
